pIC50: −log10 of the molar value.
Key:
[1] = target: BRD4-BD2 (Homo sapiens (Human), UniProt O60885); test: BRD4 AlphaScreen assay, BRD4-BD2; assay type: binding; conditions: H4Ac4 peptide, 75 min, room temperature, read-out: BRD4 BD-2 enzyme IC50
Experimental: (§1) BRD4-BD1 and BRD4-BD2 assays were conducted in white 384-well polystyrene plate in a final volume of 20 μL for BD1 and 40 μL for BD2. Inhibitors were first serially diluted in DMSO and added to the plate wells before the addition of other reaction components. […] After plate sealing, the plate was incubated in the dark at room temperature for 75 min. before reading on a PHERAstar FS plate reader (BMG Labtech). IC50 determination was performed by fitting the curve of percent control activity versus the log of the inhibitor concentration using the GraphPad Prism 5.0 software.

[2] = target: BRD4-BD1 (Homo sapiens (Human), UniProt O60885); test: BRD4 AlphaScreen assay, BRD4-BD1; assay type: binding; conditions: H4Ac4 peptide, 75 min, room temperature, read-out: BRD4 BD-1 enzyme IC50
Experimental: as §1

[3] = test system: C-myc; test: KMS.12.BM C-myc ELISA assay; assay type: cell-based; conditions: Homo sapiens; KMS.12.BM cells, 2 hours, concentration required for 50% C-myc inhibition
Experimental: KMS.12.BM cell line (human myeloma) was purchased from JCRB (Osaka, Japan) and maintained in RPMI with 10% FBS culture medium. To measure the C-myc inhibitory activity of the compounds, the KMS.12.BM cells are plated in the RPMI culture medium at 75000 cells/well/per 200 μL into a 96-well flat bottom polystyrene tissue culture plate (Corning through VWR, NJ), in the presence or absence of a concentration range of test compounds. After 2 hours, cell are pelleted and lysed with Cell Extraction Buffer (BioSource, Carlsbad, Calif.) in the presence of protease inhibitors (Life Technologies, Grand Island, N.Y. and Sigma, St Louis, Mo.). Clarified lyses are tested in a C-myc commercial ELISA (Life Technologies, Grand Island, N.Y.). Compound inhibition is determined relative to cells cultured with no drug and the IC50 is reported as the compound concentration required for 50% C-myc inhibition. IC50 data for the Examples is presented in Table 10 as determined by Assay C1.

[4] = test system: KMS.12.BM cells; test: KMS.12.BM cell viability assay (Cell Titer-GLO, ATP quantitation); assay type: cell-based; conditions: Homo sapiens, 72 h, 3 days, concentration required for 50% cell death, read-out: KMS cellular IC50
Experimental: KMS.12.BM cell line (human myeloma) was purchased from JCRB (Osaka, Japan) and maintained in RPMI with 10% FBS culture medium. To measure the cytotoxic activity of the compounds through ATP quantitation, the KMS.12.BM cells are plated in the RPMI culture medium at 5000 cells/well/per 100 μL into a 96-well polystyrene clear black tissue culture plate (Greiner-bio-one through VWR, NJ), in the presence or absence of a concentration range of test compounds. After 3 days, […] Cell Titer-GLO Luminescent (Promega, Madison, Wis.) cell culture agent is added to each well for 10 minutes at room temperature to stabilize the luminescent signal. This determines the number of viable cells in culture based on quantitation of the ATP present, which signals the presence of metabolically active cells. Luminescence is measured with the Top Count 384 (Packard Bioscience through Perkin Elmer, Boston, Mass.). Compound inhibition is determined relative to cells cultured with no drug and the IC50 is reported as the compound concentration required for 50% cell death. IC50 data for the Examples is presented in Table 9 as determined by Assay B1.

SMILES	pIC50 [1]	pIC50 [2]	pIC50 [3]	pIC50 [4]
Cn1cc(-c2ccc3[nH]c(=O)[nH]c3c2Oc2ccc(F)cc2F)c2cn[nH]c2c1=O [Example 16, 4-[4-(2,4-Difluorophenoxy)-2-oxo-2,3-dihydro-1H-benzimidazol-5-yl]-6-methyl-1,6-dihydro-7H-pyrazolo[3,4-c]pyridin-7-one]	> 7.00	> 7.00	≥ 6.00	≥ 6.00
Cn1cc(-c2ccc3c(ncn3CCN3CCOCC3)c2Oc2ccc(F)cc2F)c2cn[nH]c2c1=O [Example 17, 4-[4-(2,4-Difluorophenoxy)-1-(2-morpholin-4-ylethyl)-1H-benzimidazol-5-yl]-6-methyl-1,6-dihydro-7H-pyrazolo[3,4-c]pyridin-7-one]	> 7.00	> 7.00	≥ 6.00	≥ 6.00
Cn1cc(-c2ccc3c(ncn3C)c2Oc2ccc(F)cc2F)c2cn[nH]c2c1=O [Example 18, 4-[4-(2,4-Difluorophenoxy)-1-methyl-1H-benzimidazol-5-yl]-6-methyl-1,6-dihydro-7H-pyrazolo[3,4-c]pyridin-7-one]	> 7.00	> 7.00	≥ 6.00	≥ 6.00
Cc1nc2c(Oc3ccc(F)cc3F)c(-c3cn(C)c(=O)c4[nH]ncc34)ccc2n1C [Example 19, 4-[4-(2,4-Difluorophenoxy)-1,2-dimethyl-1H-benzimidazol-5-yl]-6-methyl-1,6-dihydro-7H-pyrazolo[3,4-c]pyridin-7-one]	> 7.00	> 7.00	≥ 6.00	≥ 6.00
Cn1cc(-c2ccc3c(nnn3C)c2Oc2ccc(F)cc2F)c2cn[nH]c2c1=O [Example 20, 4-[4-(2,4-Difluorophenoxy)-1-methyl-1H-1,2,3-benzotriazol-5-yl]-6-methyl-1,6-dihydro-7H-pyrazolo[3,4-c]pyridin-7-one]	> 7.00	> 7.00	≥ 6.00	≥ 6.00
Cn1cc(-c2ccc3ncn(CC(=O)N4CCOCC4)c3c2Oc2ccc(F)cc2F)c2cc[nH]c2c1=O [Example 30, 4-[7-(2,4-Difluorophenoxy)-1-(2-morpholin-4-yl-2-oxoethyl)-1H-benzimidazol-6-yl]-6-methyl-1,6-dihydro-7H-pyrrolo[2,3-c]pyridin-7-one]	> 7.00	> 7.00	≥ 6.00	≥ 6.00
Cn1cc(-c2ccc3c(ncn3CC(=O)N3CCOCC3)c2Oc2ccc(F)cc2F)c2cc[nH]c2c1=O [Example 31, 4-[4-(2,4-difluorophenoxy)-1-(2-morpholin-4-yl-2-oxoethyl)-1H-benzimidazol-5-yl]-6-methyl-1,6-dihydro-7H-pyrrolo[2,3-c]pyridin-7-one]	> 7.00	> 7.00	≥ 6.00	≥ 6.00
CN(C)C(=O)Cn1cnc2c(Oc3ccc(F)cc3F)c(-c3cn(C)c(=O)c4[nH]ccc34)ccc21 [Example 34, 2-[4-(2,4-difluorophenoxy)-5-(6-methyl-7-oxo-6,7-dihydro-1H-pyrrolo[2,3-c]pyridin-4-yl)-1H-benzimidazol-1-yl]-N,N-dimethylacetamide]	> 7.00	> 7.00	≥ 6.00	≥ 6.00
CNC(=O)Cn1cnc2c(Oc3ccc(F)cc3F)c(-c3cn(C)c(=O)c4[nH]ccc34)ccc21 [Example 36, 2-[4-(2,4-difluorophenoxy)-5-(6-methyl-7-oxo-6,7-dihydro-1H-pyrrolo[2,3-c]pyridin-4-yl)-1H-benzimidazol-1-yl]-N-methylacetamide]	> 7.00	> 7.00	≥ 6.00	≥ 6.00

Now from value to compound, other results behind:

pIC50 [1]	pIC50 [2]	pIC50 [3]	SMILES	pIC50 [4]
> 7.00	> 7.00	≥ 6.00	Cn1cc(-c2ccc3c([nH]c(=O)n3C)c2Oc2ccc(F)cc2F)c2cn[nH]c2c1=O [Example 21, 4-[4-(2,4-Difluorophenoxy)-1-methyl-2-oxo-2,3-dihydro-1H-benzimidazol-5-yl]-6-methyl-1,6-dihydro-7H-pyrazolo[3,4-c]pyridin-7-one]	≥ 6.00
> 7.00	> 7.00	≥ 6.00	Cn1cc(-c2ccc3[nH]c(=O)[nH]c3c2Oc2ccccc2)c2cc[nH]c2c1=O [Example 22, 5-(6-Methyl-7-oxo-6,7-dihydro-1H-pyrrolo[2,3-c]pyridin-4-yl)-4-phenoxy-1,3-dihydro-2H-benzimidazol-2-one]	≥ 6.00
> 7.00	> 7.00	≥ 6.00	Cn1cc(-c2ccc3[nH]c(=O)[nH]c3c2Oc2ccc(F)cc2)c2cc[nH]c2c1=O [Example 24, 4-(4-Fluorophenoxy)-5-(6-methyl-7-oxo-6,7-dihydro-1H-pyrrolo[2,3-c]pyridin-4-yl)-1,3-dihydro-2H-benzimidazol-2-one]	≥ 6.00
> 7.00	> 7.00	≥ 6.00	Cn1cc(-c2ccc3[nH]c(=O)[nH]c3c2Oc2cccc(F)c2)c2cc[nH]c2c1=O [Example 25, 4-(3-Fluorophenoxy)-5-(6-methyl-7-oxo-6,7-dihydro-1H-pyrrolo[2,3-c]pyridin-4-yl)-1,3-dihydro-2H-benzimidazol-2-one]	≥ 6.00
> 7.00	> 7.00	≥ 6.00	Cn1cc(-c2ccc3[nH]c(=O)[nH]c3c2OC2CCCOC2)c2cc[nH]c2c1=O (centres unmarked) [Example 26, 5-(6-Methyl-7-oxo-6,7-dihydro-1H-pyrrolo[2,3-c]pyridin-4-yl)-4-(tetrahydro-2H-pyran-3-yloxy)-1,3-dihydro-2H-benzimidazol-2-one]	≥ 6.00
> 7.00	6.00 to 7.00	≥ 6.00	Cn1cc(-c2ccc3c([nH]c(=O)n3C)c2OCc2ccccc2)c2cc[nH]c2c1=O [Example 27, 4-(Benzyloxy)-1-methyl-5-(6-methyl-7-oxo-6,7-dihydro-1H-pyrrolo[2,3-c]pyridin-4-yl)-1,3-dihydro-2H-benzimidazol-2-one]	≥ 6.00
> 7.00	6.00 to 7.00	5.00 to 6.00	Cn1cc(-c2ccc3c([nH]c(=O)n3C)c2OCc2ccc(F)cc2F)c2cc[nH]c2c1=O [Example 28, 4-[(2,4-Difluorobenzyl)oxy]-1-methyl-5-(6-methyl-7-oxo-6,7-dihydro-1H-pyrrolo[2,3-c]pyridin-4-yl)-1,3-dihydro-2H-benzimidazol-2-one]	≥ 6.00
> 7.00	> 7.00	≥ 6.00	Cn1cc(-c2ccc3c([nH]c(=O)n3C)c2OC2CCOCC2)c2cc[nH]c2c1=O [Example 29, 1-Methyl-5-(6-methyl-7-oxo-6,7-dihydro-1H-pyrrolo[2,3-c]pyridin-4-yl)-4-(tetrahydro-2H-pyran-4-yloxy)-1,3-dihydro-2H-benzimidazol-2-one]	≥ 6.00
> 7.00	6.00 to 7.00	≥ 6.00	COc1c(-c2cn(C)c(=O)c3[nH]ccc23)ccc2c1[nH]c(=O)n2C [Example 32, 4-Methoxy-1-methyl-5-(6-methyl-7-oxo-6,7-dihydro-1H-pyrrolo[2,3-c]pyridin-4-yl)-1,3-dihydro-2H-benzimidazol-2-one]	≥ 6.00
> 7.00	> 7.00	≥ 6.00	Cn1cc(-c2ccc3c([nH]c(=O)n3C)c2OCC2CCC2)c2cc[nH]c2c1=O [Example 37, 4-(Cyclobutylmethoxy)-1-methyl-5-(6-methyl-7-oxo-6,7-dihydro-1H-pyrrolo[2,3-c]pyridin-4-yl)-1,3-dihydro-2H-benzimidazol-2-one]	≥ 6.00
> 7.00	> 7.00	≥ 6.00	Cn1cc(-c2ccc3c([nH]c(=O)n3C)c2Oc2ccccc2)c2cc[nH]c2c1=O [Example 38, 1-Methyl-5-(6-methyl-7-oxo-6,7-dihydro-1H-pyrrolo[2,3-c]pyridin-4-yl)-4-phenoxy-1,3-dihydro-2H-benzimidazol-2-one]	≥ 6.00

From patent US9918990B2, “Substituted pyrrolo[2,3-c]pyridines and pyrazolo[3,4-c]pyridines as BET protein inhibitors” (Incyte Corporation, priority 2013, dated 2018)
